Experimental data: article PMC5923390, “Further New Diterpenoids as PTP1B Inhibitors from the Xisha Soft Coral Sinularia polydactyla” (Marine Drugs, 2018)
Values joined by “and” are separate entries in the source; they are usually repeats but may differ in a detail not shown here. Equal entries are not always repeated.

Molecular target: T1, recombinant PTP1B catalytic domain (Homo sapiens, UniProt P18031)
T1 construct: Recombinant PTP1B catalytic domain was expressed and purified according to a previous report; made in house
T1 sequence (P18031 3-277 limits assumed): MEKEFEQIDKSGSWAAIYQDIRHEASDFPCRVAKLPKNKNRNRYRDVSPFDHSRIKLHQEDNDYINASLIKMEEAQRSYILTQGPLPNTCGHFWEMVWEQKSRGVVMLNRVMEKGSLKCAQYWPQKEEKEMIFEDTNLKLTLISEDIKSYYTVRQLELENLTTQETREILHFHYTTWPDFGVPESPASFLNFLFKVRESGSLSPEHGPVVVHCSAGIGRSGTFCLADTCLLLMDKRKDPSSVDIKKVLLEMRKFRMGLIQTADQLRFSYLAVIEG
Assay: PTP1B inhibitory activity assay (pNPP hydrolysis)
Type: biochemical
Conditions: for PTP1B inhibitory activity (in words): in vitro, pNPP hydrolysis; for IC50: pNPP 2 mmol/L, 30 nmol/L recombinant PTP1B, MOPs pH 6.5, 30 °C, absorbance 405 nm, read-out: IC50 against PTP1B
Description: Recombinant PTP1B catalytic domain was expressed and purified according to a previous report. The enzymatic activities of the PTP1B catalytic domain were determined at 30 °C by monitoring the hydrolysis of pNPP. The dephosphorylation of pNPP generated product pNP, which was monitored at an absorbance of 405 nm by the EnVision multi label plate reader (Perkin Elmer Life Sciences, Boston, MA). In an atypical 100 µL assay mixture containing 50 mmol/L 3-[N-morpholino] propanesulfonic acid (MOPs), pH 6.5, 2 mmol/L pNPP, and 30 nmol/L recombinant PTP1B, activities were continuously monitored and the initial rate of hydrolysis was determined using the early linear region of the enzymatic reaction kinetic curve. The IC50 was calculated with Prism 4 software (Graphpad, San Diego, CA).

SMILES | PTP1B inhibitory activity (in words) | IC50
C=C[C@@]1(C)CC[C@H](/C(C)=C/C=C/C(C)(C)OC)C[C@@H]1C(=C)C [Compound 5, lobatetraene] | inactive | –
C=C[C@@]1(C)CC[C@H](/C(C)=C/C=C/C(C)(C)O)C[C@@H]1C(=C)C [Compound 6, fuscol] | inactive | –
CC1=CC[C@@H](O)[C@@]2(C)CC[C@H](/C(C)=C/C=C/C(C)(C)O)C[C@H]12 [Compound 7] | – | 75.5 µM and 72.4 µM

More lines, now with the values ahead:

PTP1B inhibitory activity (in words) | IC50 | SMILES
promising inhibitory activity | 63.9 µM | CC(=CC=CC(C)(C)O)C1CCC2(C)CCC=C(C)C2C1 (centres unmarked) [Compound 8, sinupol]
promising inhibitory activity | 51.8 µM | C=C1CCC=C(C)C(OC(C)=O)C(OC(C)=O)C(C(C)C)=CC2C(C)=CCC12 (centres unmarked) [Compound 9, sinulacetate]
inactive | – | CC1=CC=C(C(C)C)C(O)C(O)C(C)=CCCC(C)=CCC1 (centres unmarked) [Compound 10, sarcophytol B]
